The values below are quoted from earlier work in patent US12296050B2, “Pharmaceutical compositions comprising maralixibat and uses thereof” (Mirum Pharmaceuticals, Inc., priority 2023, dated 2025).

In the data set the target is T1, apical sodium co-dependent bile acid transport (Homo sapiens, UniProt Q12908).
T1 sequence (Q12908 1-348): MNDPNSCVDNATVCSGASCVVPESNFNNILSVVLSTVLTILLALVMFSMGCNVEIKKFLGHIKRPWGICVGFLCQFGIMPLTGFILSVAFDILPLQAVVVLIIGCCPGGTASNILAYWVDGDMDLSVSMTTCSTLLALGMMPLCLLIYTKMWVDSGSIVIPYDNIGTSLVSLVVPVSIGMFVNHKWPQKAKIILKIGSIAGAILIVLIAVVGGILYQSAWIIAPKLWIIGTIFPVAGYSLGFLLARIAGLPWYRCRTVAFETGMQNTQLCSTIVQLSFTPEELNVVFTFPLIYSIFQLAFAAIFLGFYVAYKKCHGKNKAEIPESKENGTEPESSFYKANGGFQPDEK
The following applies: known from U.S. Pat. No. 5,994,391.

On to `CCCCC1(CCCC)CS(=O)(=O)c2ccc(N(C)C)cc2[C@@H](c2ccc(OCc3ccc(C[N+]45CCN(CC4)CC5)cc3)cc2)[C@H]1O.[Cl-]` [maralixibat chloride], for which the “Effect on apical sodium co-dependent bile acid transport, in words” value is “inhibits”.
